Measured values: the Kinase Knowledgebase extract (Sharma et al. 2016)

biological target: PIK3CG (human) (UniProt P48736); assay: Assessment of PIK3CG Kinase Activity
Sequence (P48736 whole entry, looked up): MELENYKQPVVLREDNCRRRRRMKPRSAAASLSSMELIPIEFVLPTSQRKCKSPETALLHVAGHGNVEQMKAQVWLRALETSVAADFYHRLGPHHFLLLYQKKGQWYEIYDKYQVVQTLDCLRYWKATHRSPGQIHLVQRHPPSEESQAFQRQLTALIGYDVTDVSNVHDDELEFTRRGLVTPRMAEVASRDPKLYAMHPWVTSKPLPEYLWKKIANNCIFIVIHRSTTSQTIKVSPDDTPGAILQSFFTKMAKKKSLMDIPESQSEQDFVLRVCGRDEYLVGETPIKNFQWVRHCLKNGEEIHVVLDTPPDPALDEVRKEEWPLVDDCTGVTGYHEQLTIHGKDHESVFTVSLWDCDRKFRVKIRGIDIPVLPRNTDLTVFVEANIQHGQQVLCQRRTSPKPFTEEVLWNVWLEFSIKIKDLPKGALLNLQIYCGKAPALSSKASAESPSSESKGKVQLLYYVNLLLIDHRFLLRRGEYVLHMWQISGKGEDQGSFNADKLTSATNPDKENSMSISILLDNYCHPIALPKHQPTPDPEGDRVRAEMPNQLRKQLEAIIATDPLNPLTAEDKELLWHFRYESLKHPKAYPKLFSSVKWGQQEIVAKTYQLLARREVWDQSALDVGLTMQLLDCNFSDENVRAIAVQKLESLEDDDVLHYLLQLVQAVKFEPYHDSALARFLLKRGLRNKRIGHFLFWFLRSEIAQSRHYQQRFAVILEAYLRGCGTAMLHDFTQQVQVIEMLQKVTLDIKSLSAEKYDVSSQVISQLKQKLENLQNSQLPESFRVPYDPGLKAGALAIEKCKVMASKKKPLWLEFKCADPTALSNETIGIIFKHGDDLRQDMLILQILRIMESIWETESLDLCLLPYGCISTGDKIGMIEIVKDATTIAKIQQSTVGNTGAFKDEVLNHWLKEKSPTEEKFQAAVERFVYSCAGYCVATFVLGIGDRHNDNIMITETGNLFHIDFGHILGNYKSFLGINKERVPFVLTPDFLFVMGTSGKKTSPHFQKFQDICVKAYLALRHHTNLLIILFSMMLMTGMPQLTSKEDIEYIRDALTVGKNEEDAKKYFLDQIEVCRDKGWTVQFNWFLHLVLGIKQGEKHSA

IC50, < 600 nM:
CC(=O)Nc1nc2c(s1)-c1nc(-c3cc(C#CCN4CCN(C(C)=O)CC4)ccc3Cl)ncc1CC2, CC(=O)Nc1nc2c(s1)-c1nc(-c3cc(C#CCN4CCCC4)ccc3Cl)ncc1CC2, CC(=O)Nc1nc2c(s1)-c1nc(-c3cc(C#CC4(NC(C)=O)CCCCC4)ccc3Cl)ncc1CC2, CC(=O)Nc1nc2c(s1)-c1nc(-c3cccc(C#CCNC(=O)C4CCCC4)c3)ncc1CC2, CC(=O)Nc1nc2c(s1)-c1nc(-c3cc(C#CCCCNCC(C)C)ccc3Cl)ncc1CC2, CC(=O)Nc1nc2c(s1)-c1nc(-c3cc(C#CC4CCN(C(C)C)CC4)ccc3Cl)ncc1CC2, CC(=O)Nc1nc2c(s1)-c1nc(-c3cc(C#CCNS(=O)(=O)N(C)C)ccc3Cl)ncc1CC2, CC(=O)Nc1nc2c(s1)-c1nc(-c3cc(C#CCN4CCN(C)C(=O)C4)ccc3Cl)ncc1CC2, CC(=O)Nc1nc2c(s1)-c1nc(-c3cc(C#CCN(C)CC(C)C)ccc3Cl)ncc1CC2, CC(=O)Nc1nc2c(s1)-c1nc(-c3cc(C#CCN4CCS(=O)(=O)CC4)ccc3Cl)ncc1CC2, CC(=O)Nc1nc2c(s1)-c1nc(-c3cc(C#CCCN(C)C)ccc3Cl)ncc1CC2, CC(=O)Nc1nc2c(s1)-c1nc(-c3cc(C#CCNCc4ccccn4)ccc3Cl)ncc1CC2, CC(=O)Nc1nc2c(s1)-c1nc(-c3cc(C#CCCCN4CCN(C)CC4)ccc3Cl)ncc1CC2, CC(=O)Nc1nc2c(s1)-c1nc(-c3cc(C#CC4(O)CCC(C)(C)CC4)ccc3Cl)ncc1CC2, CC(=O)Nc1nc2c(s1)-c1nc(-c3cc(C#CCN(C)S(=O)(=O)C(C)C)ccc3Cl)ncc1CC2, CC(=O)Nc1nc2c(s1)-c1nc(-c3cc(C#CC4CCNCC4)ccc3Cl)ncc1CC2, CC(=O)Nc1nc2c(s1)-c1nc(-c3cc(C#CCn4ccnc4)ccc3Cl)ncc1CC2, CC(=O)Nc1nc2c(s1)-c1nc(-c3cc(C#CC4(O)CCN(C5CCCC5)CC4)ccc3F)ncc1CC2, CNC(=O)Nc1nc2c(s1)-c1nc(-c3cc(C#CC4CCN(C5CCCC5)CC4)ccc3Cl)ncc1CC2, CC(=O)Nc1nc2c(s1)-c1nc(-c3cc(C#C[C@@H]4CCCN4)ccc3Cl)ncc1CC2, CC(=O)Nc1nc2c(s1)-c1nc(-c3cccc(C#CCN(C)C)c3)ncc1CC2, CC(=O)Nc1nc2c(s1)-c1nc(-c3cccc(C#CC4CCN(C(C)C)CC4)c3)ncc1CC2, CC(=O)Nc1nc2c(s1)-c1nc(-c3cc(C#CC4CCN(C5CCCC5)CC4)ccc3F)ncc1CC2, CC(=O)Nc1nc2c(s1)-c1nc(-c3cc(C#CCNC(=O)N(C)C)ccc3Cl)ncc1CC2, CC(=O)Nc1nc2c(s1)-c1nc(-c3cccc(C#CC4(O)CCN(C(C)C)CC4)c3)ncc1CC2, CC(=O)Nc1nc2c(s1)-c1nc(-c3cc(C#CC4CCN(S(=O)(=O)N(C)C)CC4)ccc3Cl)ncc1CC2, CCNC1(C#Cc2ccc(Cl)c(-c3ncc4c(n3)-c3sc(NC(C)=O)nc3CC4)c2)CCCCC1, CC(=O)Nc1nc2c(s1)-c1nc(-c3cc(C#CCNS(=O)(=O)CC(F)(F)F)ccc3Cl)ncc1CC2, CC(=O)Nc1nc2c(s1)-c1nc(-c3cc(C#CCNS(=O)(=O)c4ccccc4)ccc3Cl)ncc1CC2, CNC(=O)N(C)CCC#Cc1ccc(Cl)c(-c2ncc3c(n2)-c2sc(NC(C)=O)nc2CC3)c1, CC(=O)Nc1nc2c(s1)-c1nc(-c3cc(C#CC4CCN(C(=O)CC5CCCC5)CC4)ccc3Cl)ncc1CC2, CC(=O)Nc1nc2c(s1)-c1nc(-c3cccc(C#CC4(O)CCN(C)CC4)c3)ncc1CC2, CC(=O)Nc1nc2c(s1)-c1nc(-c3cc(C#CCN(C)C(C)=O)ccc3Cl)ncc1CC2, CC(=O)Nc1nc2c(s1)-c1nc(-c3cc(C#CCNS(=O)(=O)N4CCCC4)ccc3Cl)ncc1CC2, CC(=O)Nc1nc2c(s1)-c1nc(-c3cc(C#CC4(N5CCCC5)CCCCC4)ccc3Cl)ncc1CC2, CC(=O)Nc1nc2c(s1)-c1nc(-c3cc(C#CC4CCN(C(=O)C(C)C)CC4)ccc3Cl)ncc1CC2, CC(=O)Nc1nc2c(s1)-c1nc(-c3cccc(C#CC4CCN(CC5CCCC5)CC4)c3)ncc1CC2, CC(=O)Nc1nc2c(s1)-c1nc(-c3cc(C#CCNC(=O)NC4CCCC4)ccc3Cl)ncc1CC2, CC(=O)Nc1nc2c(s1)-c1nc(-c3cc(C#CCN)ccc3Cl)ncc1CC2, CNC(=O)N1CCC(C#Cc2ccc(Cl)c(-c3ncc4c(n3)-c3sc(NC(C)=O)nc3CC4)c2)CC1, CC(=O)Nc1nc2c(s1)-c1nc(-c3cc(C#CCNC(=O)CN(C)C)ccc3Cl)ncc1CC2, CC(=O)Nc1nc2c(s1)-c1nc(-c3cc(Cl)cc(C#CC4(N)CCCCC4)c3)ncc1CC2, CNC1(C#Cc2ccc(Cl)c(-c3ncc4c(n3)-c3sc(NC(C)=O)nc3CC4)c2)CCCCC1, CCNC(=O)NCC#Cc1ccc(Cl)c(-c2ncc3c(n2)-c2sc(NC(C)=O)nc2CC3)c1, CC(=O)Nc1nc2c(s1)-c1nc(-c3cc(C#CCN(C)C(=O)C4CCCC4)ccc3Cl)ncc1CC2, CC(=O)Nc1nc2c(s1)-c1nc(-c3cc(C#CCCN(C)C(C)C)ccc3Cl)ncc1CC2, CC(=O)Nc1nc2c(s1)-c1nc(-c3cc(C#CCNC(=O)CC4CCCC4)ccc3Cl)ncc1CC2, CC(=O)Nc1nc2c(s1)-c1nc(-c3cc(C#CC4CCN(C(=O)N5CCOCC5)CC4)ccc3Cl)ncc1CC2, CC(=O)Nc1nc2c(s1)-c1nc(-c3cc(C#CCNS(C)(=O)=O)ccc3Cl)ncc1CC2, CC(=O)NCC#Cc1ccc(Cl)c(-c2ncc3c(n2)-c2sc(NC(C)=O)nc2CC3)c1, CC(=O)Nc1nc2c(s1)-c1nc(-c3cccc(C#CCNS(=O)(=O)C4CC4)c3)ncc1CC2, CC(=O)Nc1nc2c(s1)-c1nc(-c3cc(C#C[C@H]4CCCN4)ccc3Cl)ncc1CC2, CC(=O)Nc1nc2c(s1)-c1nc(-c3cc(C#CC4(NC(C)C)CCCCC4)ccc3Cl)ncc1CC2, CC(=O)Nc1nc2c(s1)-c1nc(-c3cc(C#CCN(C)S(=O)(=O)CC(F)(F)F)ccc3Cl)ncc1CC2, CC(=O)Nc1nc2c(s1)-c1nc(-c3cc(C#CCNC4CCCC4)ccc3Cl)ncc1CC2, C=CC#Cc1ccc(Cl)c(-c2ncc3c(n2)-c2sc(NC(C)=O)nc2CC3)c1, CC(=O)Nc1nc2c(s1)-c1nc(-c3cc(C#CC4CCN(C(=O)NC(C)C)CC4)ccc3Cl)ncc1CC2, CC(=O)Nc1nc2c(s1)-c1nc(-c3cc(C#CCN(C)S(C)(=O)=O)ccc3Cl)ncc1CC2, CC(=O)Nc1nc2c(s1)-c1nc(-c3cc(C#CCNCC(C)(C)C)ccc3Cl)ncc1CC2, COC1(C#Cc2ccc(Cl)c(-c3ncc4c(n3)-c3sc(NC(C)=O)nc3CC4)c2)CCN(C)CC1, CC(=O)Nc1nc2c(s1)-c1nc(-c3cc(Cl)cc(C#CCN(C)S(C)(=O)=O)c3)ncc1CC2, CC(=O)Nc1nc2c(s1)-c1nc(-c3cc(C#CCCN4CCCC4)ccc3Cl)ncc1CC2, CC(=O)Nc1nc2c(s1)-c1nc(-c3cc(C#CCCNCC4CCCC4)ccc3Cl)ncc1CC2, CC(=O)Nc1nc2c(s1)-c1nc(-c3cc(C#CC4CCN(C5CCCC5)CC4)ccc3Cl)ncc1CC2, CC(=O)Nc1nc2c(s1)-c1nc(-c3cc(C#CCN(C)S(=O)(=O)N4CCCC4)ccc3Cl)ncc1CC2, CC(=O)Nc1nc2c(s1)-c1nc(-c3cc(C#CCNC(=O)NCC4CCCCC4)ccc3Cl)ncc1CC2, CC(=O)Nc1nc2c(s1)-c1nc(-c3cc(C#CCNS(=O)(=O)c4ccoc4)ccc3Cl)ncc1CC2, CC(=O)Nc1nc2c(s1)-c1nc(-c3cc(Cl)cc(C#CCN(C)C)c3)ncc1CC2, CC(=O)Nc1nc2c(s1)-c1nc(-c3cc(C#CC4CCN(C(=O)CC(C)C)CC4)ccc3Cl)ncc1CC2, CC(=O)Nc1nc2c(s1)-c1nc(-c3cc(C#CCN(C)C(=O)C(C)C)ccc3Cl)ncc1CC2, CC(=O)Nc1nc2c(s1)-c1nc(-c3cc(C#CCNS(=O)(=O)C(C)C)ccc3Cl)ncc1CC2, COCC#Cc1ccc(Cl)c(-c2ncc3c(n2)-c2sc(NC(C)=O)nc2CC3)c1, CCNC(=O)N1CCC(C#Cc2ccc(Cl)c(-c3ncc4c(n3)-c3sc(NC(C)=O)nc3CC4)c2)CC1, CC(=O)Nc1nc2c(s1)-c1nc(-c3cc(C#CCN(C)S(=O)(=O)C4CC4)ccc3Cl)ncc1CC2, CC(=O)Nc1nc2c(s1)-c1nc(-c3cc(C#CCCN4CCC(N(C)C)CC4)ccc3Cl)ncc1CC2, CC(=O)Nc1nc2c(s1)-c1nc(-c3cc(C#CC4(N(C)C)CCCCC4)ccc3Cl)ncc1CC2, CC(=O)Nc1nc2c(s1)-c1nc(-c3cc(C#Cc4cccnc4)ccc3Cl)ncc1CC2, CC(=O)Nc1nc2c(s1)-c1nc(-c3cc(C#CC4CCN(C(=O)NC(C)(C)C)CC4)ccc3Cl)ncc1CC2, CCN(C)S(=O)(=O)NCC#Cc1ccc(Cl)c(-c2ncc3c(n2)-c2sc(NC(C)=O)nc2CC3)c1, CC(=O)Nc1nc2c(s1)-c1nc(-c3cc(C#CCCCN(C)C(C)C)ccc3Cl)ncc1CC2, CC(=O)Nc1nc2c(s1)-c1nc(-c3cc(C#CCNC4CCN(C)CC4)ccc3Cl)ncc1CC2, CC(=O)Nc1nc2c(s1)-c1nc(-c3cc(C#CCCCNC(C)C)ccc3Cl)ncc1CC2, CC(=O)Nc1nc2c(s1)-c1nc(-c3cc(C#CCNCC4CC4)ccc3Cl)ncc1CC2, CCS(=O)(=O)NCC#Cc1ccc(Cl)c(-c2ncc3c(n2)-c2sc(NC(C)=O)nc2CC3)c1, CC(=O)Nc1nc2c(s1)-c1nc(-c3cc(C#CCC4CCCC4)ccc3Cl)ncc1CC2, CC(=O)Nc1nc2c(s1)-c1nc(-c3cc(C#CC4(O)CCCCC4)ccc3Cl)ncc1CC2, CC(=O)Nc1nc2c(s1)-c1nc(-c3cc(C#CCNCC4CCCC4)ccc3Cl)ncc1CC2, CC(=O)Nc1nc2c(s1)-c1nc(-c3cc(C#CCNC(=O)CC4CCCCC4)ccc3Cl)ncc1CC2
